Experimental data published in patent US7674771B2, “Antimicrobial peptides and utilization of the same” (Toagosei Co., Ltd, priority 2003, dated 2010).
Like-named read-outs stand apart in the source and are kept apart here. Peptide text beside a SMILES is read from it.

What was measured:
[1] = tested on: methicillin-resistant Staphylococcus aureus (MRSA, No. 164 strain); test: Treatment effect test on mice infected by MRSA, bacterial count in intestine content; type: in vivo; conditions: mice, oral 100 mg/kg
Procedure: The following test was performed to evaluate the treatment effect on mice infected by bacterial (MRSA) of sample 22 obtained by synthesis.
Mice (ICR, SLC, male, 5 weeks old) were prepared by rearing on drinking water mixed with amphotericin B (AMPH: product of Bristol-Myers Company) and tetracycline, such that their concentrations are 10 μg/mL (AMPH) and 2000 μg/mL (tetracycline) respectively, a week before the start of the test, and the immunity of the mice was weaken by administrating 200 mg/kg amount of cyclophosphamide into the abdominal for 3 days from the fourth day prior to the test.
Bacterial suspension prepared by suspending methicillin-resistant Staphylococcus aureus (MRSA, No. 164 strain) in 10% (w/v) of mucin solution was orally administered to the mice at a bacterial administration quantity of 10^8 cells/mouse, thereby eliciting MRSA infection.
One hour after the bacterial inoculation, antimicrobial agent prepared by suspending the test material (therefore polypeptide of sample 22) in 10% of gum arabic solution was orally administered. The administered quantity of suspension was 100 mg/kg. A total of 5 test groups, with each test group containing 5 test mice, were tested. For comparison, antimicrobial agent prepared by suspending vancomycin in 10% of gum arabic solution was orally administered to the test mice under the same conditions.
After the drug administration, test mice were slaughtered approximately 24 hours later, and the contents in the intestine extracted, and the bacterial count of MRSA examined. More specifically, 1.8 mL of physiological saline was added to and mixed with approximately 0.2 g of intestine contents. A fixed quantity of such mixture was smeared on mannitol agar medium (product of Nissui Pharmaceutical Co., Ltd) including gentamicin (GM) with a concentration of […], and cultured for 3 days at 37° C.

[2] = tested on: Staphylococcus aureus IFO 12732; type: cell-based
Procedure: (§1) Regarding the antimicrobial peptide (samples 1 to 20) related to the present invention, the antimicrobial activities (minimum inhibitory concentration: MIC) with respect to gram-negative bacteria (Escherichia coli IFO 3972) and gram-positive bacteria (Staphylococcus aureus IFO 12732) were determined by a liquid medium dilution technique using a 96-well microplate.
(§2) First, a drug (synthesized polypeptide) solution having a concentration of 40 times of the highest test concentration was prepared using sterile distilled water, and liquid-bouillon mediums (more specifically, “Mueller Hinton Broth” manufactured by DIFCO) including cation and having drug concentrations of 100, 50, 25, 12.5, 6.3, 3.1, 1.6 and 0.8 μM were respectively produced. The cation included was prepared as follows: dissolving 3.68 g of CaCl2.2H2O in 100 mL of purified water (10 mg.Ca^2+/mL), and thereafter adding 500 μL thereof into 100 mL of Mueller Hinton Broth; and dissolving 8.36 g of MgCl2.6H2O in 100 mL of purified water (10 mg.Mg^2+/mL), and thereafter adding 250 μL thereof into 100 mL of Mueller Hinton Broth. Thereafter, the produced liquid-bouillon mediums including the drug of each concentration were then fed to the 96-well microplate at […] a time.
(§3) At the same time, test bacteria cultured for 18 hours at 37° C. on an agar plate (“Muller Hinton Agar” manufactured by DIFCO) were gathered by scratching with a loop, and then suspended in a sterilized physiological saline. Bacterial suspension 5 μL prepared at an equivalent of 2×10^7 cells/mL was respectively inoculated (number of bacteria to be tested: approximately 1×10^6 cells/mL) onto the drug solution and fed to each well of the above-described microplate. After inoculation, the microplate was then incubated in an incubator at 37° C., and the presence of bacteria was evaluated based on the turbidity 24 hours later. The minimum drug concentration (polypeptide concentration), in which an increased in turbidity caused by bacteria was not detected at the time of measurement, was defined as MIC (minimum inhibitory concentration) (unit: μM) in the present embodiment. In addition, MIC were determined in the same manner using polymyxin B as a comparison.

[3] = tested on: Escherichia coli IFO 3972; test: MIC by liquid medium dilution technique, 96-well microplate, gram-negative bacteria; type: cell-based
Procedure: as §1, §2, §3

S. aureus = type: cell-based, Staphylococcus aureus
Procedure: as §2, §3
Next, the antimicrobial activities (MIC) against gram-positive bacteria (S. aureus) in the presence of serum were tested with the same method as Example 2. […] Thereafter, the produced liquid-bouillon mediums including the drug and the serum of each concentration were then fed to the 96-well microplate at […] a time, and MIC were determined by the method same as Example 2. Sample X in the table is a mixture of sample 1 and sample 16 based on a mass ratio of 1:1. “-” in the table indicate “untested”.

[4] = Mueller Hinton Broth with cation, 37° C., turbidity after 24 hours

Row | Compound | Antimicrobial Activities (MIC) S. aureus ([2]; IFO 12732, 24 h) | Antimicrobial Activities (MIC) E. coli ([3]; IFO 3972, 24 h) | other results
1 | CN[C@H](CC(C)C)C(=O)N[C@H]1C(=O)N[C@@H](CC(N)=O)C(=O)N[C@H]2C(=O)N[C@H]3C(=O)N[C@H](C(=O)N[C@H](C(=O)O)c4cc(O)cc(O)c4-c4cc3ccc4O)[C@H](O)c3ccc(c(Cl)c3)Oc3cc2cc(c3O[C@@H]2O[C@H](CO)[C@@H](O)[C@H](O)[C@H]2O[C@H]2C[C@](C)(N)[C@H](O)[C@H](C)O2)Oc2ccc(cc2Cl)[C@H]1O [Vancomycin, vancomycin, reference compound] |  |  | MRSA bacterial quantity in intestine content, administered group 1 ([1]; approximately 24 hours after administration, group 1): 8 ×10^3 cells/g; MRSA bacterial quantity in intestine content, administered group 2 ([1]; approximately 24 hours after administration, group 2): 10 ×10^3 cells/g; MRSA bacterial quantity in intestine content, administered group 3 ([1]; approximately 24 hours after administration, group 3): 43 ×10^3 cells/g; MRSA bacterial quantity in intestine content, administered group 4 ([1]; approximately 24 hours after administration, group 4): 22 ×10^3 cells/g; MRSA bacterial quantity in intestine content, administered group 5 ([1]; approximately 24 hours after administration, group 5): 26 ×10^3 cells/g; MRSA bacterial quantity in intestine content, Average ([1]; average of groups 1-5): 22 ×10^3 cells/g
2 | C[C@@H](O)[C@H](N)C(=O)NCC(=O)N[C@H](C(=O)NCC(N)=O)[C@@H](C)O [comparative sample 2, TGTG-CONH2, reference compound] (H-TGTG-NH2) | >100 µM | >100 µM | 
3 | Ac-RKKKRKVLMWWMLR-NH2 [sample 8, Ac-RKKKRKVLMWWMLR-CONH2] | 3.1 µM | 12.5 µM | Antimicrobial Activities (MIC) against S. aureus, horse serum concentration 10% (S. aureus): 3.1 µM; Antimicrobial Activities (MIC) against S. aureus, horse serum concentration 50% (S. aureus): 6.3 µM
4 | H-LKRKLQRLMWWML-NH2 [sample 15, LKRKLQRLMWWML-CONH2] | 3.1 µM | 12.5 µM | Antimicrobial Activities (MIC) against S. aureus, horse serum concentration 10% (S. aureus): 6.3 µM
5 | H-LKRKLQRLMWWMLR-NH2 [sample 18, LKRKLQRLMWWMLR-CONH2] | 6.3 µM | 12.5 µM | 
6 | H-LMWWML-NH2 [comparative sample 3, LMWWML-CONH2, reference compound] | >100 µM | >100 µM | 
7 | H-LMWWMLRIRKKLR-NH2 [sample 4, LMWWMLRIRKKLR-CONH2] | 3.1 µM | 6.3 µM | Antimicrobial Activities (MIC) against S. aureus, horse serum concentration 10% (S. aureus): 6.3 µM
8 | H-LMWWMLRIRKKLRVGR-NH2 [sample 20, LMWWMLRIRKKLRVGR-CONH2] | 3.1 µM | 6.3 µM | 
9 | H-LMWWMLRKKKRKV-NH2 [sample 5, LMWWMLRKKKRKV-CONH2] | 3.1 µM | 50 µM | 
10 | H-RAVTLYLGAVAA-NH2 [comparative sample 4, RAVTLYLGAVAA-CONH2, reference compound] |  |  | Antimicrobial Activities (MIC) S. aureus [2, 4]: >100 µM; Antimicrobial Activities (MIC) E. coli [3, 4]: >100 µM
11 | H-RGDLMWWMLAR-NH2 [comparative sample 1, RGDLMWWMLAR-CONH2, reference compound] | >100 µM | >100 µM | Antimicrobial Activities (MIC) against S. aureus, horse serum concentration 10% (S. aureus): >50 µM
12 | H-RIRKKLRLMWWMLAR-NH2 [sample 7, RIRKKLRLMWWMLAR-CONH2] | 3.1 µM | 6.3 µM | Antimicrobial Activities (MIC) against S. aureus, horse serum concentration 10% (S. aureus): 3.1 µM; Antimicrobial Activities (MIC) against S. aureus, horse serum concentration 20% (S. aureus): 6.3 µM; Antimicrobial Activities (MIC) against S. aureus, horse serum concentration 50% (S. aureus): 6.3 µM
13 | H-RIRKKLRLMWWMLR-NH2 [sample 14, RIRKKLRLMWWMLR-CONH2] | 3.1 µM | 6.3 µM | Antimicrobial Activities (MIC) against S. aureus, horse serum concentration 10% (S. aureus): 6.3 µM
14 | H-RIRKKLRYIGSR-NH2 [comparative sample 6, RIRKKLRYIGSR-CONH2, reference compound] | 50 µM | >100 µM | 
15 | H-RKKKRKVFFYMVIR-NH2 [sample 11, RKKKRKVFFYMVIR-CONH2] | 3.1 µM | 6.3 µM | 
16 | H-RKKKRKVLLTAKMR-NH2 [sample 10, RKKKRKVLLTAKMR-CONH2] | 12.5 µM | 50 µM | 
17 | H-RKKKRKVLMWWML-NH2 [sample 2, RKKKRKVLMWWML-CONH2] | 3.1 µM | 12.5 µM | 
18 | H-RKKKRKVLMWWMLAR-NH2 [sample 6, RKKKRKVLMWWMLAR-CONH2] |  |  | Antimicrobial Activities (MIC) S. aureus [2, 4]: 6.3 µM; Antimicrobial Activities (MIC) against S. aureus, horse serum concentration 10% (S. aureus; horse serum 10%): 3.1 µM; Antimicrobial Activities (MIC) against S. aureus, horse serum concentration 20% (S. aureus; horse serum 20%): 3.1 µM; Antimicrobial Activities (MIC) against S. aureus, horse serum concentration 50% (S. aureus; horse serum 50%): 1.6 µM; Antimicrobial Activities (MIC) E. coli [3, 4]: 12.5 µM
19 | H-RKKKRKVLMWWMLKPV-NH2 [sample 21, RKKKRKVLMWWMLKPV-CONH2] |  |  | Antimicrobial Activities (MIC) against S. aureus, horse serum concentration 10% (S. aureus): 1.6 µM; antimicrobial activity against S. aureus in the presence of serum, in words (S. aureus; horse serum, Table 3): particularly high antimicrobial activity
20 | H-RKKKRKVLMWWMLR-OH [sample 16, RKKKRKVLMWWMLR-COOH] | 3.1 µM | 12.5 µM | Antimicrobial Activities (MIC) against S. aureus, horse serum concentration 10% (S. aureus): 3.1 µM
21 | H-RKKKRKVLYLGAVR-NH2 [sample 12, RKKKRKVLYLGAVR-CONH2] | 12.5 µM | 50 µM | 
22 | H-RKKKRKVVVYWLLR-NH2 [sample 9, RKKKRKVVVYWLLR-CONH2] | 3.1 µM | 12.5 µM | 
23 | H-RKKKRKVYIGSR-NH2 [comparative sample 7, RKKKRKVYIGSR-CONH2, reference compound] | 12.5 µM | 100 µM | 
24 | H-RKKRRQRRRLMWWML-NH2 [sample 19, RKKRRQRRRLMWWML-CONH2] | 6.3 µM | 12.5 µM | 
25 | H-RKRKRKRLMWWML-NH2 [sample 13, RKRKRKRLMWWML-CONH2] | 3.1 µM | 6.3 µM | 
26 | H-RKRRLMWWMLKKLR-NH2 [sample 17, RKRRLMWWMLKKLR-CONH2] | 3.1 µM | 6.3 µM | 
27 | H-RLLTAKMLMWWMLR-NH2 [comparative sample 5, RLLTAKMLMWWMLR-CONH2, reference compound] | 12.5 µM | >100 µM | 
28 | polymyxin B [reference compound] |  |  | Antimicrobial Activities (MIC) S. aureus [2, 4]: 6.3 µM; Antimicrobial Activities (MIC) against S. aureus, horse serum concentration 10% (S. aureus; horse serum 10%): 6.3 µM; Antimicrobial Activities (MIC) against S. aureus, horse serum concentration 20% (S. aureus; horse serum 20%): 6.3 µM; Antimicrobial Activities (MIC) against S. aureus, horse serum concentration 50% (S. aureus; horse serum 50%): 3.1 µM; Antimicrobial Activities (MIC) E. coli [3, 4]: 1.6 µM
